The EC50 is the concentration needed to bring the measured effect to its halfway point. A higher EC50 goes with lower potency in that assay.

The target of this test is T1, CLR fused to EYFP and RAMP2 fused to ECFP (Homo sapiens, UniProt O60895+Q16602).
T1 construct: EYFP; ECFP; expressed in transfected cells; host or cells: HEK-293 cells, transient co-transfection
The experiment in a line: cAMP assay (CRE luciferase reporter, HEK-293 cells transiently co-transfected with CLR and RAMP2). Type of test: cell-based. The note with it: Table 2, cAMP assay; HEK-293, CLR/RAMP2, CRE luciferase, 3 h stimulation, normalized to [G^14]ADM(14-52). As to the method: HEK-293 cells (human embryonic kidney cells) were cultured in Ham's F-12/DMEM (1/1; v/v) containing 15% FCS under humidified atmosphere at 37° C. and 5% CO2 in 75 cm^2 cell culture flasks.
Cells were cultured in 75 cm^2 flasks to 70-80% confluency. 45 μl Metafectene® Pro was diluted in 900 μl Ham's F-12/DMEM (1/1; v/v) and incubated for 20 min at room temperature. 9000 ng plasmid containing DNA of CLR fused to EYFP and 3000 ng plasmid containing DNA of RAMP2 fused to ECFP were dissolved in 900 μl Ham's F-12/DMEM (1/1; v/v). The plasmid solution was mixed with the Metafectene® Pro solution and incubated for 25 min at room temperature. Medium was removed from the cells and replaced by 6 ml Ham's F-12/DMEM (1/1; v/v) containing 15% FCS. After addition of transfection solution the cells were incubated for 3 h under humidified atmosphere at 37° C. and 5% CO2.
For the second transfection 45 μl Metafectene® Pro was diluted in 900 μl Ham's F-12/DMEM (1/1; v/v) and incubated for 20 min at room temperature. 12000 ng of pGL4.29[luc2P/CRE/Hygro] plasmid containing DNA for the luciferase reporter gene luc2P (with CRE promotor region) were dissolved in 900 μl Ham's F-12/DMEM (1/1; v/v). The plasmid solution was mixed with the Metafectene® Pro solution and incubated for 25 min at room temperature. Medium was removed from the cells and replaced by 6 ml Ham's F-12/DMEM (1/1; v/v) containing 15% FCS. After addition of transfection solution the cells were incubated under humidified atmosphere at 37° C. and 5% CO2 over night.
For the coating of 96-well-plates 50 μl of a Poly-D-Lysine solution (1 ml stock solution of Poly-D-Lysin-hydrobromid/10 ml DPBS) were pipetted in each well and incubated for 40 min. After removal of the Poly-D-Lysine each well was washed with 50 μl DPBS. Transiently transfected cells were detached from the cell culture flask by removal of the medium, twofold washing with 5 m1 DPBS and resuspending in 13 ml Ham's F-12/DMEM (1/1; v/v) containing 15% FCS. 90000 to 120000 cells in 150 μl Ham's F-12/DMEM (1/1; v/v) containing 15% FCS were seeded per well and the plates were incubated under humidified atmosphere at 37° C. and 5% CO2 over night.
For each ligand a serial dilution giving eight different concentrations was prepared using Ham's F-12/DMEM (1/1; v/v). Before stimulation the medium on the cells was replaced by 100 μl Ham's F-12/DMEM (1/1; v/v) and the plates were incubated for 1 h under humidified atmosphere at 37° C. and 5% CO2. For stimulation the medium was removed again and the cells were incubated for 3 h in 80 μl of ligand-solution under humidified atmosphere at 37° C. and 5% CO2. In addition 80 μl of a 5 μM forskolin solution (in Ham's F-12/DMEM (1/1; v/v)) was used as a positive control and 80 μl of Ham's F-12/DMEM (1/1; v/v) as a negative control. Each concentration and the controls were tested as triplicates.
After 3 h of stimulation, the solutions were removed and the cells were washed with 50 μl of Ham's F-12/DMEM (1/1; v/v) per well. After 10 min incubation in 30 μl of Ham's F-12/DMEM (1/1; v/v) at room temperature, 30 μl of luciferase-solution (ONE-Glo™ Luciferase Assay System) was added and the luminescence was directly measured using an Infinite M200 (Tecan).
Data analysis of the luminescence measurement was carried out with GraphPad Prism 5. Therefore the measured luminescence values of each plate were first corrected on the base of the respective average of forskolin stimulation. Afterwards they were normalized to [G^14]ADM(14-52) which was used as standard peptide in every assay. After correction and normalization data was analysed using non-linear regression giving dose-response curves for each tested ligand.
In general terms: Changes in cAMP serve as a functional read-out for many G protein-coupled receptors.

The structures appear in SMILES notation. Numbered stars: 1 amine (or outer) side, 2 acyl side, 3 side chain; on linkers, the order of the positions; unused ones are H or OH. Bridge positions count the residues as written; N and C are the ends. Square brackets hold non-standard residues; d marks the D form. Peptide text beside a SMILES is read from it. * marks the point of attachment. Abu(4-yl) = O=C([C@H](CC[*:3])N[*:1])[*:2]; Palmitoyl = CCCCCCCCCCCCCCCC(=O)*; Orn = NCCC[C@H](N)C(=O)O; Dap = NC[C@H](N)C(=O)O

T1 sequence (Q16602 23-461): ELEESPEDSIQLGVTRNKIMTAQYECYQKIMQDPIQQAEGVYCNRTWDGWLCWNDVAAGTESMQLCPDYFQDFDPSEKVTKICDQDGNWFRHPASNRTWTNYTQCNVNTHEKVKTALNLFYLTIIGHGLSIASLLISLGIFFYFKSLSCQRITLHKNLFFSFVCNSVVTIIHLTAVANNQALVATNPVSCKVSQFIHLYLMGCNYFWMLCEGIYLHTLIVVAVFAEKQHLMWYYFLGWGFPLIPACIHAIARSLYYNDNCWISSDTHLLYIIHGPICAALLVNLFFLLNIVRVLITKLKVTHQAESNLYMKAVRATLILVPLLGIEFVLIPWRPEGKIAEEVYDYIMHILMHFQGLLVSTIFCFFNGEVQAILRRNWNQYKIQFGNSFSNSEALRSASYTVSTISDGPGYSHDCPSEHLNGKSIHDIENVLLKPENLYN
T1 sequence (O60895 43-175): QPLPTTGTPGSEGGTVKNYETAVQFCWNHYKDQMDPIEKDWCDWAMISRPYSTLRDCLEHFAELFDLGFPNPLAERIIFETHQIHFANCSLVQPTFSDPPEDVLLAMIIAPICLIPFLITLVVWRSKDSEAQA

In the case of `CC[C@H](C)[C@H](NC(=O)[C@H](CCC(N)=O)NC(=O)[C@H](Cc1c[nH]cn1)NC(=O)[C@H](C)NC(=O)[C@H](CC(C)C)NC(=O)[C@H](CCCCN)NC(=O)[C@H](CCC(N)=O)NC(=O)[C@@H](NC(=O)[C@@H](NC(=O)[C@@H]1CCSC[C@H](NC(=O)CNC(=O)CN)C(=O)N[C@@H](CCCNC(=N)N)C(=O)N[C@@H](Cc2ccccc2)C(=O)NCC(=O)N[C@@H]([C@@H](C)O)C(=O)N1)[C@@H](C)O)C(C)C)C(=O)N[C@@H](Cc1ccc(O)cc1)C(=O)N[C@@H](CCC(N)=O)C(=O)N[C@@H](Cc1ccccc1)C(=O)N[C@H](C(=O)N[C@@H](CC(=O)O)C(=O)N[C@@H](CCCCN)C(=O)N[C@@H](CC(=O)O)C(=O)N[C@@H](CCCCN)C(=O)N[C@@H](CC(=O)O)C(=O)N[C@@H](CC(N)=O)C(=O)N[C@H](C(=O)N[C@@H](C)C(=O)N1CCC[C@H]1C(=O)N[C@@H](CCCNC(=N)N)C(=O)N[C@@H](CO)C(=O)N[C@@H](CCCCN)C(=O)N[C@H](C(=O)N[C@@H](CO)C(=O)N1CCC[C@H]1C(=O)N[C@@H](CCC(N)=O)C(=O)NCC(=O)N[C@@H](Cc1ccc(O)cc1)C(N)=O)[C@@H](C)CC)C(C)C)[C@@H](C)O` [Example 15, ((4S,7S,13S,16S,19R)-19-(2-(2-aminoacetamido)acetamido)-13-benzyl-16-(3-guanidinopropyl)-7-((R)-1-hydroxyethyl)-6,9,12,15,18-pentaoxo-1-thia-5,8,11,14,17-pentaazacycloicosane-4-carbonyl)-L-threonyl-ADM(22-52)] (H-GGCRFGT[Abu(4-yl)]TVQKLAHQIYQFTDKDKDNVAPRSKISPQGY-NH2; thioether 3-8), the response was half-maximal at 3.3 nM (EC50).

The molecule `CC[C@H](C)[C@H](NC(=O)[C@H](CCC(N)=O)NC(=O)[C@H](Cc1c[nH]cn1)NC(=O)[C@H](C)NC(=O)[C@H](CC(C)C)NC(=O)[C@H](CCCCN)NC(=O)[C@H](CCC(N)=O)NC(=O)[C@@H](NC(=O)[C@@H](NC(=O)[C@@H]1CSCC[C@H](NC(=O)CNC(=O)CN)C(=O)N[C@@H](CCCNC(=N)N)C(=O)N[C@@H](Cc2ccccc2)C(=O)NCC(=O)N[C@@H]([C@@H](C)O)C(=O)N1)[C@@H](C)O)C(C)C)C(=O)N[C@@H](Cc1ccc(O)cc1)C(=O)N[C@@H](CCC(N)=O)C(=O)N[C@@H](Cc1ccccc1)C(=O)N[C@H](C(=O)N[C@@H](CC(=O)O)C(=O)N[C@@H](CCCCN)C(=O)N[C@@H](CC(=O)O)C(=O)N[C@@H](CCCCN)C(=O)N[C@@H](CC(=O)O)C(=O)N[C@@H](CC(N)=O)C(=O)N[C@H](C(=O)N[C@@H](C)C(=O)N1CCC[C@H]1C(=O)N[C@@H](CCCNC(=N)N)C(=O)N[C@@H](CO)C(=O)N[C@@H](CCCCN)C(=O)N[C@H](C(=O)N[C@@H](CO)C(=O)N1CCC[C@H]1C(=O)N[C@@H](CCC(N)=O)C(=O)NCC(=O)N[C@@H](Cc1ccc(O)cc1)C(N)=O)[C@@H](C)CC)C(C)C)[C@@H](C)O` [Example 16, ((3R,6S,12S,15S,18S)-18-(2-(2-aminoacetamido)acetamido)-12-benzyl-15-(3-guanidinopropyl)-6-((R)-1-hydroxyethyl)-5,8,11,14,17-pentaoxo-1-thia-4,7,10,13,16-pentaazacycloicosane-3-carbonyl)-L-threonyl-ADM(22-52)] (H-GG[Abu(4-yl)]RFGTCTVQKLAHQIYQFTDKDKDNVAPRSKISPQGY-NH2; thioether 3-8) gave an EC50 of 6.8 nM.

For the molecule `CCCCCCCCCCCCCCCC(=O)NCCCC[C@H](N)C(=O)NCC(=O)N[C@H]1CNC(=O)CC[C@@H](C(=O)N[C@H](C(=O)N[C@H](C(=O)N[C@@H](CCC(N)=O)C(=O)N[C@@H](CCCCN)C(=O)N[C@@H](CC(C)C)C(=O)N[C@@H](C)C(=O)N[C@@H](Cc2c[nH]cn2)C(=O)N[C@@H](CCC(N)=O)C(=O)N[C@H](C(=O)N[C@@H](Cc2ccc(O)cc2)C(=O)N[C@@H](CCC(N)=O)C(=O)N[C@@H](Cc2ccccc2)C(=O)N[C@H](C(=O)N[C@@H](CC(=O)O)C(=O)N[C@@H](CCCCN)C(=O)N[C@@H](CC(=O)O)C(=O)N[C@@H](CCCCN)C(=O)N[C@@H](CC(=O)O)C(=O)N[C@@H](CC(N)=O)C(=O)N[C@H](C(=O)N[C@@H](C)C(=O)N2CCC[C@H]2C(=O)N[C@@H](CCCNC(=N)N)C(=O)N[C@@H](CO)C(=O)N[C@@H](CCCCN)C(=O)N[C@H](C(=O)N[C@@H](CO)C(=O)N2CCC[C@H]2C(=O)N[C@@H](CCC(N)=O)C(=O)NCC(=O)N[C@@H](Cc2ccc(O)cc2)C(N)=O)[C@@H](C)CC)C(C)C)[C@@H](C)O)[C@@H](C)CC)C(C)C)[C@@H](C)O)NC(=O)[C@H]([C@@H](C)O)NC(=O)CNC(=O)[C@H](Cc2ccccc2)NC(=O)[C@H](CCCNC(=N)N)NC1=O` [Example 18, ((3S,9S,12S,15S,21S)-15-(2-((S)-2-amino-6-palmitamidohexanamido)acetamido)-9-benzyl-12-(3-guanidinopropyl)-3-((R)-1-hydroxyethyl)-2,5,8,11,14,18-hexaoxo-1,4,7,10,13,17-hexaazacyclohenicosane-21-carbonyl)-L-threonyl-ADM(22-52)] (H-K(Palmitoyl)G[Dap]RFGTETVQKLAHQIYQFTDKDKDNVAPRSKISPQGY-NH2; lactam 3-8), the concentration giving a half-maximal response (EC50) amounted to 2 nM. As to `CC[C@H](C)[C@H](NC(=O)[C@H](CCC(N)=O)NC(=O)[C@H](Cc1c[nH]cn1)NC(=O)[C@H](C)NC(=O)[C@H](CC(C)C)NC(=O)[C@H](CCCCN)NC(=O)[C@H](CCC(N)=O)NC(=O)[C@@H](NC(=O)[C@@H](NC(=O)[C@@H]1CCC(=O)NCCC[C@H](NC(=O)CNC(=O)CN)C(=O)N[C@@H](CCCNC(=N)N)C(=O)N[C@@H](Cc2ccccc2)C(=O)NCC(=O)N[C@@H]([C@@H](C)O)C(=O)N1)[C@@H](C)O)C(C)C)C(=O)N[C@@H](Cc1ccc(O)cc1)C(=O)N[C@@H](CCC(N)=O)C(=O)N[C@@H](Cc1ccccc1)C(=O)N[C@H](C(=O)N[C@@H](CC(=O)O)C(=O)N[C@@H](CCCCN)C(=O)N[C@@H](CC(=O)O)C(=O)N[C@@H](CCCCN)C(=O)N[C@@H](CC(=O)O)C(=O)N[C@@H](CC(N)=O)C(=O)N[C@H](C(=O)N[C@@H](C)C(=O)N1CCC[C@H]1C(=O)N[C@@H](CCCNC(=N)N)C(=O)N[C@@H](CO)C(=O)N[C@@H](CCCCN)C(=O)N[C@H](C(=O)N[C@@H](CO)C(=O)N1CCC[C@H]1C(=O)N[C@@H](CCC(N)=O)C(=O)NCC(=O)N[C@@H](Cc1ccc(O)cc1)C(N)=O)[C@@H](C)CC)C(C)C)[C@@H](C)O` [Example 20, ((2S,5S,11S,14S,22S)-22-(2-(2-aminoacetamido)acetamido)-5-benzyl-2-(3-guanidinopropyl)-11-((R)-1-hydroxyethyl)-3,6,9,12,17,23-hexaoxo-1,4,7,10,13,18-hexaazacyclotricosane-14-carbonyl)-L-threonyl-ADM(22-52)] (H-GG[Orn]RFGTETVQKLAHQIYQFTDKDKDNVAPRSKISPQGY-NH2; lactam 3-8), the EC50 amounted to 9.1 nM.

The values are drawn from patent publication US20180022780A1, “STABILIZATION ADRENOMEDULLIN DERIVATIVES AND USE THEREOF” (priority 2014, published 2018).
